Experimental data published in patent US20160313301A1, “METHOD FOR PREDICTING ANTITUMOR EFFICACY OF HSP90 INHIBITOR IN CANCER TREATMENT” (NIPPON KAYAKU KABUSHIKI KAISHA, priority 2013, published 2016).

System: client proteins and HSP90-related proteins in TOV-21G tumor
Experiment: Immunoblot: change in expression amount of proteins in TOV-21G tumor after administration
Type: in vivo, human
Conditions: 40 mg/kg tail vein
Procedure: Thirty micrograms of total protein was subjected to electrophoresis in 8% acrylamide gel. Then, the protein was transferred onto a PVDF membrane at a voltage of 100 V for 60 min at 4 °C. The PVDF membrane on which the protein had been transferred was blocked in TBS-Tween (0.1%) containing 5% milk at normal temperature for 60 min, followed by incubating with each of primary antibodies described below overnight at 4 °C. • Primary antibody (supplier, product number, dilution ratio, exposure time) • EGFR (Santa Cruz, sc-003, 1:500, 1 min) • HER2 (Santa Cruz, sc-284, 1:2000, 5 sec) • HER3 (Santa Cruz, sc-285, 1:400, 1 min) • Met (Santa Cruz, sc-161, 1:500, 5 min) • IGF-1R (Cell Signaling, #3027, 1:500, 15 sec) • Raf-1 (Santa Cruz, sc-133, 1:300, 5 min) • Stat3 (BD Transduction Laboratory, 610189, 1:500, 15 sec) • pAkt (Cell Signaling, #4058S, 1:500, 1 min) • Akt (Cell Signaling, #4691S, 1:2000, 15 sec) • pERK (Santa Cruz, sc-16982-R, 1:500, 1 min) • ERK (Invitrogen, 44-654G, 1:1000, 15 sec) • mTOR (Cell Signaling, #2983S, 1:500, 15 sec) • MEK (Cell Signaling, #9122S, 1:500, 1 min) • HSP90 (Enzo Life Science, SPA-830, 1:500, 15 sec) • HSP70 (Enzo Life Science, SPA-810, 1:2000, 15 sec) • Actin (Santa Cruz, sc-8432/HRP, 1:300, 5 min)
After incubation, the blot membrane was washed with TBS-Tween (0.1%) at normal temperature for 10 min three times to thereby remove excessive primary antibodies. Then, the membrane was incubated with an appropriate secondary antibody (anti-rabbit IgG HRP conjugate or anti-mouse IgG HRP conjugate) at normal temperature for 60 min. The membrane was washed with TBS-Tween (0.1%) at normal temperature for 10 min three times to thereby remove excessive secondary antibodies. Then, the membrane was incubated with ECL Western Blotting Detection Reagents (GE Healthcare) for 2 min, followed by exposing to an X-ray film. Thus, the signal of the intended protein was detected.
Tumors to be transplanted derived from human ovarian cancer cell lines SK-OV-3 and TOV-21G were prepared in the same manner as in Example 1.
Protein extraction liquid was obtained from each tumor as follows. The human ovarian cancer tumors maintained by passage in SCID mice were transplanted subcutaneously to the dorsums of SCID mice with trocars. When the tumor volume of each tumor reached about 300 mm^3, the triazole (A-1) synthesized as the HSP90 inhibitor in Synthetic Example 1 was administered into a tail vein of each of the mice at a dose of 40 mg/kg in the same manner as in Example 1. The tumors were removed before and 4 and 24 hours after administration. At each time point, the tumors were removed from three mice for the SK-OV-3 tumor and two mice for the TOV-21G tumor. Protein extraction liquids were obtained in the same manner as in Example 1. The total protein amount in each of the extraction liquids was quantified in the same manner as in Example 1.
The immunoblot method was used to verify change in expression amounts of the client proteins and the HSP90-related proteins in the SK-OV-3 and TOV-21G tumors to which the triazole compound (A-1) had been administered, in the same manner as in Example 1. The types and dilution ratios of primary antibodies and secondary antibodies used were the same as in Example 1.

CC(C)c1cc(-c2n[nH]c(=O)n2-c2ccc(CN3CCN(C)CC3)cc2)c(O)cc1O [A-1, 5-(2,4-dihydroxy-5-isopropyl-phenyl)-4-[4-(4-methyl-piperazin-1-ylmethyl)-phenyl]-2,4-dihydro-[1,2,4]triazol-3-one]
expression amount of total Akt: not changed | expression amount of total ERK: not changed | expression level of EGFR: decreased | expression level of HER2: decreased | expression level of IGF-1R: decreased | expression level of Met: decreased | expression level of mTOR: decreased | expression level of pAkt: decreased
